Experimental data from ChEMBL document CHEMBL1145373, “Syntheses of potent, selective, and orally bioavailable indazole-pyridine series of protein kinase B/Akt inhibitors with reduced hypotension” (J Med Chem, 2007).

Legend:
[1] = biological target: cAMP-dependent protein kinase (PKA) (Homo sapiens, UniProt P22694+P17612+P22612); test: Inhibition of PKA; format: protein assay
[2] = Cytotoxicity against human MIA PaCa cells by MTT assay; format: functional, cell-based
[3] = Oral bioavailability in mouse at 10 mg/kg, po; format: ADME, organism-based; conditions: in vivo
[4] = Half life in mouse at 3 mg/kg, iv; format: ADME, organism-based; parameters: dose 3 mg/kg, route intravenous; conditions: in vivo
[5] = Toxicity assessed as prolongation of action potential duration in dog purkinje fibres at 20 uM; format: tissue-based, Canis lupus familiaris, Purkinje fiber
[6] = Half life in mouse at 10 mg/kg, po; format: ADME, organism-based; parameters: dose 10 mg/kg, route oral; conditions: in vivo
Canis familiaris [7] = test: Toxicity assessed as decrease in MAP in dog infused at 0.48 mg/kg/min; format: organism-based, Canis lupus familiaris; conditions: in vivo
[8] = AUC in mouse at 10 mg/kg, po; format: ADME, organism-based; parameters: dose 10 mg/kg, route oral; conditions: plasma
[9] = Hypotensive effect in dog femoral artery by femoral artery relaxation assay; format: functional, tissue-based, Canis lupus familiaris
[10] = Oral bioavailability in dog at 2.5 mg/kg, po; format: ADME, organism-based, Canis lupus familiaris; conditions: in vivo
[11] = Oral bioavailability in orally dosed rat; format: ADME, organism-based; conditions: in vivo
[12] = biological target: Voltage-gated inwardly rectifying potassium channel KCNH2 (Homo sapiens, UniProt Q12809); test: Inhibition of hERG by patch clamp assay; format: toxicity
Chain of Voltage-gated inwardly rectifying potassium channel KCNH2 (Q12809 whole entry): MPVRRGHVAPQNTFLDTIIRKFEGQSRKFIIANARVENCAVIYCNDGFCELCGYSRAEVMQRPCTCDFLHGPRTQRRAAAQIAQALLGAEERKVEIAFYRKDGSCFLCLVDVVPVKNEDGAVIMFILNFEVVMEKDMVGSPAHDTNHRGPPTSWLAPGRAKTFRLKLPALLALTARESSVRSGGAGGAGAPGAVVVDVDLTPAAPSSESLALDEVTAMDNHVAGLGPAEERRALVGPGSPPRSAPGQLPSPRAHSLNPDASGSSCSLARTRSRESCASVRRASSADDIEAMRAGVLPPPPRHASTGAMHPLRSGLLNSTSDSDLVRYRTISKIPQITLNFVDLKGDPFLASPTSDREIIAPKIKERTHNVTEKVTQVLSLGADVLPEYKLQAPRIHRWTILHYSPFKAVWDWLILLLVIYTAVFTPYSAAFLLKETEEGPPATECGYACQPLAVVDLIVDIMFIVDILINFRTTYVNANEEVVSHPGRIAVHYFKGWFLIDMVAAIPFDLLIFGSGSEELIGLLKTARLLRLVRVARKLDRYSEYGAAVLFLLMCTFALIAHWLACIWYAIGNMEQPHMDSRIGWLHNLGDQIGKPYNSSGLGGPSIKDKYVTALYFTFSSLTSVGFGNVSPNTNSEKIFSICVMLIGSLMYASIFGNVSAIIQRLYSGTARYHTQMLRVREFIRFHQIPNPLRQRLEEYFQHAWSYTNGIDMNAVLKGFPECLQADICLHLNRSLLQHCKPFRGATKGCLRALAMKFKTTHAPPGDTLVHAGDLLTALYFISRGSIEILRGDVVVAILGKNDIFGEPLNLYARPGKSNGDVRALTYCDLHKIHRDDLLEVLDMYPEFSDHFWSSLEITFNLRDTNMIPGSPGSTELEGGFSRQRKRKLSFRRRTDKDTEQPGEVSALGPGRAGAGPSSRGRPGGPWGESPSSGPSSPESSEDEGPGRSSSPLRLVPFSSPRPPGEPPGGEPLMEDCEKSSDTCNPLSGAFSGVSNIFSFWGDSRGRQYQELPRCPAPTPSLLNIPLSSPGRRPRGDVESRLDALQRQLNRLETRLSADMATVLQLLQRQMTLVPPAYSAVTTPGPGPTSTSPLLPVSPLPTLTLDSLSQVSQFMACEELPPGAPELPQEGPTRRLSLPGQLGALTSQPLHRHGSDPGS

Mus musculus = test: Toxicity assessed as decrease in MAP in mouse at 150 mg/kg, po; format: organism-based; parameters: dose 150 mg/kg, route oral; conditions: in vivo
Canis familiaris [13] = test: Cardiovascular toxicity assessed as induction of acute hypotension in dog at 25 mg/kg, iv by femoral artery relaxation assay; format: organism-based, Canis lupus familiaris; parameters: dose 25 mg/kg, route intravenous; conditions: in vivo

Structure (SMILES)	EC50 [2]	other results
N[C@H](COc1cncc(-c2cc3cn[nH]c3cn2)c1)Cc1cccc(C(F)(F)F)c1	2390 nM	IC50 [1]: 78 nM
Cc1ccc(C[C@H](N)COc2cncc(-c3ccc4[nH]nc(C)c4c3)c2)cc1F	330 nM	
Cc1n[nH]c2ccc(-c3cncc(OC[C@@H](N)Cc4ccc(F)c(Cl)c4)c3)cc12	670 nM	
Cc1n[nH]c2ccc(-c3cncc(OC[C@@H](N)Cc4ccc(C(F)(F)F)c(F)c4)c3)cc12	1430 nM	
N[C@H](COc1cncc(-c2ccc3c(c2)/C(=C\c2ccco2)C(=O)N3)c1)Cc1ccccc1 (stereo in doubt)		bioavailability [3]: 0%; half-life [4]: 1.15 h
Cc1n[nH]c2ccc(-c3cncc(OC[C@@H](N)Cc4ccccc4Br)c3)cc12	340 nM	
Cc1n[nH]c2cnc(-c3cncc(OC[C@@H](N)Cc4cccc(F)c4F)c3)cc12	260 nM	IC50 [1]: 7 nM
Cc1n[nH]c2ccc(-c3cncc(OC[C@@H](N)Cc4ccc(Cl)c(Cl)c4)c3)cc12	490 nM	
Cc1n[nH]c2ccc(-c3cncc(OC[C@@H](N)Cc4ccccc4Cl)c3)cc12	380 nM	
Cc1cc(C[C@H](N)COc2cncc(-c3ccc4[nH]nc(C)c4c3)c2)ccc1Br	1260 nM	
Cc1n[nH]c2ccc(-c3cncc(OC[C@@H](N)Cc4cccc(OCCN5CCOCC5)c4)c3)cc12	13000 nM	
Cc1n[nH]c2ccc(-c3cncc(OC[C@@H](N)Cc4cccc(F)c4)c3)cc12	260 nM	
Cc1cc(C[C@H](N)COc2cncc(-c3ccc4[nH]nc(C)c4c3)c2)ccc1F	1070 nM	
Cc1n[nH]c2ccc(-c3cncc(OC[C@@H](N)Cc4ccc(Br)c(F)c4)c3)cc12	430 nM	
Cc1cc(F)ccc1C[C@H](N)COc1cncc(-c2ccc3[nH]nc(C)c3c2)c1	340 nM	
Cc1n[nH]c2ccc(-c3cncc(OC[C@@H](N)Cc4cccc(OCC5CCCCC5)c4)c3)cc12	16500 nM	
Cc1n[nH]c2ccc(-c3cncc(OC[C@@H](N)Cc4cccc(OC(F)(F)F)c4)c3)cc12	830 nM	
Cc1n[nH]c2ccc(-c3cncc(OC[C@@H](N)Cc4c[nH]c5ccccc45)c3)cc12 [A-443654]		Activity [5]: 2.4%; half-life [6]: 0.6 h; half-life [4]: 0.6 h; Activity (Canis familiaris [7]): 60 mmHg
COc1ccc(F)cc1C[C@H](N)COc1cncc(-c2ccc3[nH]nc(C)c3c2)c1	230 nM	
Cc1n[nH]c2ccc(-c3cncc(OC[C@@H](N)Cc4ccc(Br)cc4F)c3)cc12	900 nM	
Cc1n[nH]c2cnc(-c3cncc(OC[C@@H](N)Cc4cccc(C(F)(F)F)c4)c3)cc12	370 nM	bioavailability [3]: 25%; AUC [8]: 1.7 µM·h; IC50 [1]: 13 nM; Activity [5]: -4%; half-life [6]: 1.84 h
Cc1n[nH]c2ccc(-c3cncc(OC[C@@H](N)Cc4cccc(OCC5CCN(C)CC5)c4)c3)cc12	1250 nM	
Cc1n[nH]c2ccc(-c3cncc(OC[C@@H](N)Cc4cccc(Cl)c4Cl)c3)cc12	210 nM	
Cc1n[nH]c2ccc(-c3cncc(OC[C@@H](N)Cc4ccc(F)cc4F)c3)cc12	930 nM	
Cc1n[nH]c2ccc(-c3cncc(OC[C@@H](N)Cc4cc(F)cc(C(F)(F)F)c4)c3)cc12	1380 nM	
Cc1n[nH]c2ccc(-c3cncc(OC[C@@H](N)Cc4ccc(F)c(C(F)(F)F)c4)c3)cc12	600 nM	

Structure (SMILES)	EC50 [2]	other results
Cc1n[nH]c2ccc(-c3cncc(OC[C@@H](N)Cc4cccc(OCCC5CCNCC5)c4)c3)cc12	2740 nM	
Cc1n[nH]c2ccc(-c3cncc(OC[C@@H](N)Cc4ccc5c(c4)OC(F)(F)C(F)(F)O5)c3)cc12	3700 nM	
Cc1n[nH]c2ccc(-c3cncc(OC[C@@H](N)Cc4ccc(C(F)(F)F)cc4F)c3)cc12	2900 nM	
N[C@H](COc1cncc(-c2cc3c(Cl)n[nH]c3cn2)c1)Cc1cccc(C(F)(F)F)c1	1380 nM	IC50 [1]: 15 nM
Cc1cc(C)c(C[C@H](N)COc2cncc(-c3ccc4[nH]nc(C)c4c3)c2)c(C)c1	1610 nM	
Cc1n[nH]c2ccc(-c3cncc(OC[C@@H](N)Cc4cccc(F)c4F)c3)cc12	180 nM	IC50 [1]: 9 nM
Cc1n[nH]c2ccc(-c3cncc(OC[C@@H](N)Cc4cccc(OCC5CCNCC5)c4)c3)cc12	250 nM	
Cc1n[nH]c2ccc(-c3cncc(OC[C@@H](N)Cc4ccc(Cl)cc4)c3)cc12	440 nM	
Cc1n[nH]c2ccc(-c3cncc(OC[C@@H](N)Cc4ccc(Cl)c(F)c4)c3)cc12	270 nM	EC50 [9]: 6000 nM; bioavailability [3]: 84%; AUC [8]: 2.3 µM·h; bioavailability [10]: 40%; Activity [5]: -1.3%; bioavailability [11]: 38%; half-life [6]: 2.1 h
Cc1ccc(F)cc1C[C@H](N)COc1cncc(-c2ccc3[nH]nc(C)c3c2)c1	240 nM	
Cc1n[nH]c2ccc(-c3cncc(OC[C@@H](N)Cc4ccc(OC(F)(F)F)cc4)c3)cc12	1700 nM	
Cc1n[nH]c2ccc(-c3cncc(OC[C@@H](N)Cc4cccc5c4OC(F)(F)O5)c3)cc12	680 nM	
Cc1n[nH]c2ccc(-c3cncc(OC[C@@H](N)Cc4ccccc4)c3)cc12	640 nM	bioavailability [3]: 70%; AUC [8]: 2 µM·h; IC50 [12]: 13400 nM; Activity [5]: Toxic; half-life [6]: 1 h; half-life [4]: 1 h; Activity (Mus musculus): 31 mmHg
Cc1n[nH]c2ccc(-c3cncc(OC[C@@H](N)Cc4cccc(Br)c4)c3)cc12	370 nM	
Cc1n[nH]c2ccc(-c3cncc(OC[C@@H](N)Cc4cccc(I)c4)c3)cc12	810 nM	
Cc1n[nH]c2ccc(-c3cncc(OC[C@@H](N)Cc4cc(Cl)cc(Cl)c4)c3)cc12	1000 nM	
Cc1n[nH]c2ccc(-c3cncc(OC[C@@H](N)Cc4cccc(C(F)(F)F)c4)c3)cc12	600 nM	IC50 [1]: 5 nM
Cc1n[nH]c2ccc(-c3cncc(OC[C@@H](N)Cc4ccc5c(c4)OCO5)c3)cc12	580 nM	
Cc1n[nH]c2ccc(-c3cncc(OC[C@@H](N)Cc4cccc(OCCN)c4)c3)cc12	4800 nM	
Cc1n[nH]c2ccc(-c3cncc(OC[C@@H](N)Cc4ccc(Br)cc4)c3)cc12	700 nM	
Cc1n[nH]c2ccc(-c3cncc(OC[C@@H](N)Cc4ccc(F)c(F)c4F)c3)cc12	290 nM	
N[C@H](COc1cncc(-c2ccc3c(c2)/C(=C/c2ccc[nH]2)C(=O)N3)c1)Cc1ccccc1		EC50 [9]: 354000 nM; bioavailability [3]: 0%; half-life [4]: 0.5 h; Activity (Canis familiaris [13]): 30 mmHg
Cc1n[nH]c2ccc(-c3cncc(OC[C@@H](N)Cc4cccc(Cl)c4)c3)cc12	450 nM	
Cc1n[nH]c2ccc(-c3cncc(OC[C@@H](N)Cc4ccccc4OC(F)(F)F)c3)cc12	230 nM	
Cc1n[nH]c2ccc(-c3cncc(OC[C@@H](N)Cc4cc(C(F)(F)F)ccc4F)c3)cc12	970 nM	
